# Test results reported in PubChem BioAssay AID2060908 (Molecular Pharmacology Branch, DTP, NCI, 2025).
# System: 186277-243-T-J2-PDC complex spheroids, viability
# Experiment: Anticancer human tumor 186277-243-T-J2-PDC patient-derived colon adenocarcinoma cell line growth inhibition [RAS]
# Conditions: for IC50: curve of first compound; for viability, T/C: stronger effect = lower value
# Source text: RAS pathway inhibitors in Combinations in Complex Spheroids
# A high-throughput screen of multi-cell type tumor spheroids was designed to identify active combinations of RAS pathway inhibitors and targeted small molecules. Complex spheroids include a stromal component modeled by human endothelial cells (HUVEC) and fibroblasts modeled by human mesenchymal stem cells (MSCs). The concentration ranges selected for each drug and investigational agent were based upon clinically achievable concentrations if the clinical Cmax of the agent was known.
# Compounds. The drugs and investigational agents: abemaciclib (NSC768073), cobimetinib (NSC768068), divarasib (GDC6063, NSC841802), docetaxel (NSC628503), GDC-1971 (RLY-1971, NSC841576), gemcitabine (NSC613327), inavolisib (NSC800729), ipatasertib (NSC767898), KB-0742 (NSC834161), MRTX-1133 (NSC836407), osimertinib (NSC779217), RMC-4630 (NSC839698), RMC-6236 (NSC851965), RMC-6291 (NSC852671), Ro-3306 (NSC812927), sapanisertib (NSC764658), SN-38 (NSC673596), staurosporine (NSC755774), SY5609 (NSC837396), and tovorafenib (DAY101, NSC766906), were obtained from the National Cancer Institute (NCI) Developmental Therapeutics Program Chemical Repository. The FDA-approved anticancer drug set is available from the NCI Developmental Therapeutics Program. […] The stock solutions were prepared in dimethyl sulfoxide (DMSO, Sigma-Aldrich, St. Louis, MO, cat. D2650) at 800-fold the tested concentration and stored at -70 degrees C prior to their use. All drugs and investigational agents were tested over a range starting from a high concentration at or near the clinical Cmax and decreasing in half-log increments. If the clinical Cmax for an agent had not been determined, the highest concentration tested was 10 microM.
# Cell Culture. All cells were maintained in an incubator at 37 degrees C and 5% CO2 with 95% humidity. The PDC lines were cultured according to standard operating procedures established by the NCI PDMR. All PDCs were thawed and cultured in Matrigel-coated flasks prepared with a working solution of 1X Ham's F-12 nutrient mix, without supplementation (Invitrogen, Waltham, MA, cat. 11765054), 100 U/mL penicillin-streptomycin (Invitrogen, cat. 15140122), and 2.5% Matrigel (Corning Inc., Corning, NY, cat. 354248) for the first three passages. The 362531-283-R-J2-PDC and 782815-120-R-J1-PDC lines were cultured in 6C/Colon 1B media, which includes advanced DMEM/F-12 (Thermo Fisher Scientific, cat. 12634028), 10 mM HEPES (Thermo Fisher Scientific, cat. 15630080), 1X GlutaMAX supplement (Thermo Fisher Scientific, cat. 35050061), 0.1 mg/mL primocin (InvivoGen, San Diego, CA, cat. ant-pm-2), 10% defined fetal bovine serum, heat inactivated (HyClone Laboratories Inc., Logan, UT, cat. SH30070.03HI), 50% L-WRN conditioned media (ATCC, cat. CRL-3276), 1.25 mM N-Acetyl-L-cysteine (Sigma-Aldrich, cat. A9165), 10 mM nicotinamide (Sigma-Aldrich, cat. N0636), 1X B-27 supplement (Thermo Fisher Scientific, cat. 17504044), 1X N-2 supplement (Thermo Fisher Scientific, cat. 17502048), 50 ng/mL human EGF (Thermo Fisher Scientific, cat. PHG0311), and 10 microM Y-27632 dihydrochloride (Tocris Bioscience, cat. 1254). The K12877-001-R-J1-PDC line was cultured in 6I media, which includes all 6C/Colon 1B media plus 10 ng/mL human FGF-10 (PeproTech, cat. 100-26), 1 ng/mL human FGF-2 (PeproTech, cat. 100-18B), 1 µM prostaglandin E2 (Tocris Bioscience, cat. 2296), […] hydrocortisone (Sigma-Aldrich, cat. H4001), and […] bovine insulin (Sigma-Aldrich, cat. I6634). The K86415-001-R-J1-PDC line was cultured in 6D media, which includes all 6C/Colon 1B media components minus the L-WRN conditioned media. The 485176-168-R4-J1-PDC was cultured in PANC media, which includes all 6C/Colon 1B media plus 100 ng/mL human FGF-10 (PeproTech, cat. 100-26), 500 nM SB-431542 (Selleckchem, cat. S1067), and 10 nM gastrin (Tocris Bioscience, cat. 3006). […]
# [1] = second compound 0.0316 µM, first compound 0.0316 µM
# [2] = second compound 0.0316 µM, first compound 0.1 µM
# [3] = second compound 0.0316 µM, first compound 0.316 µM
# [4] = second compound 0.0316 µM, first compound 1 µM
# [5] = second compound 0.1 µM, first compound 0.0316 µM
# [6] = second compound 0.1 µM, first compound 0.1 µM
# [7] = second compound 0.1 µM, first compound 0.316 µM
# [8] = second compound 0.1 µM, first compound 1 µM
# [9] = second compound 0.316 µM, first compound 0.0316 µM
# [10] = second compound 0.316 µM, first compound 0.1 µM
# [11] = second compound 0.316 µM, first compound 0.316 µM
# [12] = second compound 0.316 µM, first compound 1 µM
# [13] = second compound 1 µM, first compound 0.0316 µM
# [14] = second compound 1 µM, first compound 0.1 µM
# [15] = second compound 1 µM, first compound 0.316 µM
# [16] = second compound 1 µM, first compound 1 µM
# [17] = second compound 3.16 µM, first compound 0.0316 µM
# [18] = second compound 3.16 µM, first compound 0.1 µM
# [19] = second compound 3.16 µM, first compound 0.316 µM
# [20] = second compound 3.16 µM, first compound 1 µM
# [21] = second compound 10 µM, first compound 0.0316 µM
# [22] = second compound 10 µM, first compound 0.1 µM
# [23] = second compound 10 µM, first compound 0.316 µM
# [24] = second compound 10 µM, first compound 1 µM
# 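Note: spheroids exposed to compounds for 7 days before viability read.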
smiles,measurement,setting,value
CCC(CC)c1cc(NC2CCC(N)C2)n2nccc2n1 (centres undefined) + C#Cc1c(F)ccc2cc(O)cc(-c3ncc4c(N5CC6CCC(C5)N6)nc(OCC56CCCN5CC(F)C6)nc4c3F)c12,IC50,second compound 0.0316 µM,0.672 µM
same,IC50,second compound 0.1 µM,0.564 µM
same,IC50,second compound 0.316 µM,< 0.0316 µM
same,IC50,second compound 1 µM,< 0.0316 µM
same,IC50,second compound 3.16 µM,< 0.0316 µM
same,IC50,second compound 10 µM,< 0.0316 µM
same,"viability, T/C",[1],79.8%
same,"viability, T/C",[2],77.9%
same,"viability, T/C",[3],79.6%
same,"viability, T/C",[4],34.8%
same,"viability, T/C","second compound 0.0316 µM, first compound 3.16 µM",3.07%
same,"viability, T/C","second compound 0.0316 µM, first compound 10 µM",0.17%
same,"viability, T/C",[5],56.6%
same,"viability, T/C",[6],77.6%
same,"viability, T/C",[7],69%
same,"viability, T/C",[8],32.4%
same,"viability, T/C","second compound 0.1 µM, first compound 3.16 µM",2.77%
same,"viability, T/C","second compound 0.1 µM, first compound 10 µM",0.13%
same,"viability, T/C",[9],32.8%
same,"viability, T/C",[10],40%
same,"viability, T/C",[11],33.4%
same,"viability, T/C",[12],17.3%
same,"viability, T/C","second compound 0.316 µM, first compound 3.16 µM",2.52%
same,"viability, T/C","second compound 0.316 µM, first compound 10 µM",0.1%
same,"viability, T/C",[13],16.6%
same,"viability, T/C",[14],21.3%
same,"viability, T/C",[15],19.9%
same,"viability, T/C",[16],11.3%
same,"viability, T/C","second compound 1 µM, first compound 3.16 µM",2.86%
same,"viability, T/C","second compound 1 µM, first compound 10 µM",0.14%
same,"viability, T/C",[17],11.1%
same,"viability, T/C",[18],14%
same,"viability, T/C",[19],12.2%
same,"viability, T/C",[20],10.1%
same,"viability, T/C","second compound 3.16 µM, first compound 3.16 µM",2.81%
same,"viability, T/C","second compound 3.16 µM, first compound 10 µM",0.16%
same,"viability, T/C",[21],9.8%
same,"viability, T/C",[22],9.61%
same,"viability, T/C",[23],8.97%
same,"viability, T/C",[24],6.36%
same,"viability, T/C","second compound 10 µM, first compound 3.16 µM",2.12%
same,"viability, T/C","second compound 10 µM, first compound 10 µM",0.21%
CCN1CCN(Cc2ccc(Nc3ncc(F)c(-c4cc(F)c5nc(C)n(C(C)C)c5c4)n3)nc2)CC1 + C#Cc1c(F)ccc2cc(O)cc(-c3ncc4c(N5CC6CCC(C5)N6)nc(OCC56CCCN5CC(F)C6)nc4c3F)c12,IC50,second compound 0.0316 µM,0.281 µM
same,IC50,second compound 0.1 µM,0.0149 µM
same,IC50,second compound 0.316 µM,< 0.00316 µM
same,IC50,second compound 1 µM,< 0.00316 µM
same,IC50,second compound 3.16 µM,< 0.00316 µM
same,IC50,second compound 10 µM,< 0.00316 µM
same,"viability, T/C","second compound 0.0316 µM, first compound 0.00316 µM",84.9%
same,"viability, T/C","second compound 0.0316 µM, first compound 0.01 µM",69.9%
same,"viability, T/C",[1],66.7%
same,"viability, T/C",[2],67.2%
same,"viability, T/C",[3],49.2%
same,"viability, T/C",[4],22%
same,"viability, T/C","second compound 0.1 µM, first compound 0.00316 µM",65%
same,"viability, T/C","second compound 0.1 µM, first compound 0.01 µM",55.3%
same,"viability, T/C",[5],41.7%
same,"viability, T/C",[6],31.1%
same,"viability, T/C",[7],24%
same,"viability, T/C",[8],16.7%
same,"viability, T/C","second compound 0.316 µM, first compound 0.00316 µM",28.9%
same,"viability, T/C","second compound 0.316 µM, first compound 0.01 µM",25.2%
same,"viability, T/C",[9],21.7%
same,"viability, T/C",[10],16.6%
same,"viability, T/C",[11],16.9%
same,"viability, T/C",[12],13.1%
same,"viability, T/C","second compound 1 µM, first compound 0.00316 µM",13.1%
same,"viability, T/C","second compound 1 µM, first compound 0.01 µM",16.7%
same,"viability, T/C",[13],14.2%
same,"viability, T/C",[14],11.6%
same,"viability, T/C",[15],15.6%
same,"viability, T/C",[16],11.4%
same,"viability, T/C","second compound 3.16 µM, first compound 0.00316 µM",12.8%
same,"viability, T/C","second compound 3.16 µM, first compound 0.01 µM",10.5%
same,"viability, T/C",[17],9.68%
same,"viability, T/C",[18],10.6%
same,"viability, T/C",[19],11.5%
same,"viability, T/C",[20],10.6%
same,"viability, T/C","second compound 10 µM, first compound 0.00316 µM",10.4%
same,"viability, T/C","second compound 10 µM, first compound 0.01 µM",8.81%
same,"viability, T/C",[21],10.7%
same,"viability, T/C",[22],9.4%
same,"viability, T/C",[23],9.61%
same,"viability, T/C",[24],7.42%
